In patent publication US8450278B2, “MUC18 targeting peptides” (Board of Regents, The University of Texas System, priority 2008, dated 2013):
“Also recorded” adds a separate entry of the source.

Test system: B16 melanoma cells
Assay: Phage binding assay on B16 melanoma cells pre and post co-culture with B-1 lymphocytes
Format: cell-based, mouse
Source text: The inventors used a random phage library displaying the insert CX7C(C, cysteine; X, any residue) for selection of peptides binding to melanoma cells post co-culture with B-1 lymphocytes (Giordano et al., 2001). As a pre-clearing step, 10^6 B16 cells without exposure to B-1 lymphocytes were detached, washed and resuspended in RPMI containing 2% BSA plus 10^9 transducing units (TU) of unselected phage library. Cells and phage were transferred to the top of a non-miscible organic lower phase (dibutyl phthalate: cyclohexane, 9:1 [v:v]) and centrifuged at 10,000 g for 10 min. The unbound phage population remaining in the aqueous upper phase (pre-cleared library) was collected into a fresh eppendorf tube and incubated with 10^6 B16 cells isolated post co-culture with B-1 lymphocytes. Phage in the organic lower phase were recovered from the cell pellet by bacterial host infection (Pasqualini et al., 2000; Cardo-Vila et al., 2003; Marchio et al., 2004; Marchio et al., 2004; Kolonin et al., 2004; Arap et al, 2004; Hajitou et al., 2006).
For phage binding assays to B16 melanoma, 10^6 cells pre and post co-culture with B-1 lymphocytes were incubated with each specific phage clone (10^9 TU) or negative controls. Melanoma cells and phage were centrifuged through the organic phase and the cell-bound phage clones were recovered by bacterial infection (Giordano et al., 2001).

CLFMRLAWC [SEQ ID NO:1]
phage/peptide binding to melanoma cells (in words): marked enrichment in phage binding; also recorded: selectively bind to cancerous cells
